# Measurements published in US9265773B2, “Tetracyclic heterocycle compounds and methods of use thereof for the treatment of viral diseases” (priority 2011, dated 2016).
# Legend:
# HCV replicon genotype 1a = assay: microbe, parasite or virus in culture; format: cell-based; settings: genotype 1a replicon cells, incubated 96 hours, NS3/4A ELISA readout
# HCV replicon genotype 1b = assay: microbe, parasite or virus in culture; format: cell-based; settings: genotype 1b replicon cells, incubated 96 hours, NS3/4A ELISA readout
SMILES,"IC50 (HCV replicon genotype 1a; Hepatitis C virus, 96 h)","IC50 (HCV replicon genotype 1b; Hepatitis C virus, 96 h)",IC50 (HCV replicon genotype 1a),IC50 (HCV replicon genotype 1b)
CNC(=O)c1c(-c2ccc(F)cc2)oc2cc(N(C)S(C)(=O)=O)c(-c3nc4c(cc3C)OCn3c-4cc4c(F)cccc43)cc12 [Compound 32],5.7 nM,19 nM,–,–
CNC(=O)c1c(-c2ccc(F)cc2)oc2cc(N(C)S(C)(=O)=O)c(-c3ccc4c(c3)-c3cc5ccccc5n3CC(NCCN3CCCC3)CO4)cc12 (stereo not drawn) [Compound 84],26 nM,16 nM,–,–
"CNC(=O)c1c(-c2ccc(F)cc2)oc2cc(N(C)S(C)(=O)=O)c(-c3ccc4c(n3)-c3cc5c(CO)cccc5n3CO4)cc12 [Compound 72, 2-(4-fluorophenyl)-5-(11-(hydroxymethyl)-6H-pyrido[2′,3′:5,6][1,3]oxazino[3,4-a]indol-2-yl)-N-methyl-6-(N-methylmethylsulfonamido)benzofuran-3-carboxamide]",52 nM,9 nM,–,–
CN(O)C(=O)c1c(-c2ccc(F)cc2)oc2cc(N(C)S(C)(=O)=O)c(-c3ccc4c(n3)-c3cc5c(F)cccc5n3CO4)cc12 [Compound 155],7 nM,17 nM,–,–
CNC(=O)c1c(-c2ccc(F)cc2)oc2cc(N(C)S(C)(=O)=O)c(-c3ccc4c(n3)-c3cc5c(F)cccc5n3C(CNC(=O)[C@@H]3CCCN3C(=O)OC)O4)cc12 (stereo partly drawn) [Compound 126],–,–,2.7 nM,1.4 nM
"CNC(=O)c1c(-c2ccc(F)cc2)oc2cc(C#N)c(-c3ccc4c(n3)-c3cc5c(F)cccc5n3CO4)cc12 [Compound 180, 6-cyano-5-(11-fluoro-6H-pyrido[2′,3′:5,6][1,3]oxazino[3,4-a]indol-2-yl)-2-(4-fluorophenyl)-N-methylbenzofuran-3-carboxamide]",3 nM,5.3 nM,–,–
CNC(=O)c1c(-c2ccc(F)cc2)oc2cc(N(C)S(C)(=O)=O)c(-c3ccc4c(n3)-c3cc5c(F)cccc5n3C(COC(=O)[C@@H]3CCCN3C(=O)OC)O4)cc12 (stereo partly drawn) [Compound 104],2.4 nM,4.8 nM,–,–
CNC(=O)c1c(-c2ccc(F)cc2)oc2cc(N(C)S(C)(=O)=O)c(-c3ccc4c(n3)-c3cc5c(C#N)nccc5n3CO4)cc12 [Compound 47],1.2 nM,1.8 nM,–,–
CNC(=O)c1c(-c2ccc(F)cc2)oc2cc(N(C)S(C)(=O)=O)c(-c3ncc4c(n3)-c3cc5ccccc5n3CCCO4)cc12 [Compound 39],2.4 nM,1.8 nM,–,–
CNC(=O)c1c(-c2ccc(F)cc2)oc2cc(N(C)S(C)(=O)=O)c(-c3ccc4c(n3)-c3cc5cc(C#N)cc(F)c5n3CO4)cc12 [Compound 31],7.2 nM,6.5 nM,–,–
CNC(=O)c1c(-c2ccc(F)cc2F)oc2cc(N(C)S(C)(=O)=O)c(-c3ccc4c(n3)-c3cc5ccccc5n3CO4)cc12 [Compound 148],2.8 nM,4.6 nM,–,–
CNC(=O)c1c(-c2ccc(F)cc2)oc2cc(C(=O)OC)c(-c3ccc4c(n3)-c3cc5c(F)cccc5n3CO4)cc12 [Compound 182],24 nM,23 nM,–,–
CNC(=O)c1c(-c2ccc(F)cc2)oc2cc(N(C)S(C)(=O)=O)c(-c3ccc4c(n3)-c3cc5c(F)cccc5n3C(C)(CO)O4)cc12 (stereo not drawn) [Compound 92],–,–,4.2 nM,6.5 nM
"CNC(=O)c1c(-c2ccc(F)cc2)oc2cc(N(C)S(C)(=O)=O)c(-c3ccc4c(n3)-c3c(C(O)C(=O)O)c5c(F)cccc5n3CO4)cc12 (stereo not drawn) [Compound 207, 2-(11-fluoro-2-(2-(4-fluorophenyl) -3-(methylcarbamoyl)-6-(N-methylmethylsulfonamido)benzofuran-5-yl)-6H-pyrido[2′,3′:5,6][1,3]oxazino[3,4-a]indol-12-yl)-2-hydroxyacetic acid]",3.3 nM,2.1 nM,–,–
CNC(=O)c1c(-c2ccc(F)cc2)oc2cc(N(C)S(C)(=O)=O)c(-c3cnc4c(n3)-c3cc5c(C#N)cccc5n3CO4)cc12 [Compound 33],0.9 nM,1.2 nM,–,–
CNC(=O)c1c(-c2ccc(F)cc2)oc2cc(N(C)S(C)(=O)=O)c(-c3ccc4c(n3)-c3cc5c(F)cccc5n3C(COC(=O)[C@@H](NC(=O)OC)C(C)C)O4)cc12 (stereo partly drawn) [Compound 103],3.3 nM,6.9 nM,–,–
CNC(=O)c1c(-c2ccc(F)cc2F)oc2cc(N(C)S(C)(=O)=O)c(-c3ncc4c(n3)-c3cc5c(F)cccc5n3CO4)cc12 [Compound 149],1.2 nM,2.2 nM,–,–
CNC(=O)c1c(-c2ccc(F)cc2)oc2cc(N(CC(F)F)S(C)(=O)=O)c(-c3ccc4c(n3)-c3cc5c(C#N)cccc5n3CO4)cc12 [Compound 188],3.8 nM,3.7 nM,–,–
"CC(=O)N(C)C(=O)c1c(-c2ccc(F)cc2)oc2cc(N(C)S(C)(=O)=O)c(-c3ccc4c(n3)-c3cc5c(F)cccc5n3CO4)cc12 [Compound 210, N-acetyl-5-(11-fluoro-6H-pyrido[2′,3′:5,6][1,3]oxazino[3,4-a]indol-2-yl)-2-(4-fluorophenyl)-N-methyl-6-(N-methylmethylsulfonamido)benzofuran-3-carboxamide]",2.1 nM,4.2 nM,–,–
CNC(=O)c1c(-c2ccc(F)cc2)oc2cc(N(CCCF)S(C)(=O)=O)c(-c3ccc4c(n3)-c3cc5c(C#N)cccc5n3CO4)cc12 [Compound 194],1.9 nM,2.3 nM,–,–

SMILES,"IC50 (HCV replicon genotype 1a; Hepatitis C virus, 96 h)","IC50 (HCV replicon genotype 1b; Hepatitis C virus, 96 h)",IC50 (HCV replicon genotype 1a),IC50 (HCV replicon genotype 1b)
CNC(=O)c1c(-c2ccc(F)cc2)oc2cc(N(C)S(C)(=O)=O)c(-c3ncc4c(n3)-c3cc5ccccc5n3CCO4)cc12 [Compound 7],2.4 nM,1.6 nM,–,–
CNC(=O)c1c(-c2ccc(F)cc2)oc2cc(N(C)S(C)(=O)=O)c(-c3ncc4c(n3)-c3cc5c(F)c(F)ccc5n3CO4)cc12 [Compound 30],1 nM,2.1 nM,–,–
CNC(=O)c1c(-c2ccc(F)cc2)oc2cc(N(C)S(C)(=O)=O)c(-c3ccc4c(n3)-c3cc5ccc(F)cc5n3CO4)cc12 [Compound 17],4 nM,3.9 nM,–,–
CNC(=O)c1c(-c2ccc(F)cc2)oc2cc(N(C)S(C)(=O)=O)c(-c3ccc4c(n3)-c3c(F)c5c(F)cccc5n3CO4)cc12 [Compound 59],2.5 nM,4.2 nM,–,–
"CNC(=O)c1c(-c2ccc(F)cc2)oc2cc(N3CCCC3=O)c(-c3ccc4c(c3)-c3cc5c(F)cccc5n3CO4)cc12 [Compound 171, 5-(11-fluoro-6H-benzo[5,6][1,3]oxazino[3,4-a]indol-2-yl)-2-(4-fluorophenyl)-N-methyl-6-(2-oxopyrrolidin-1-yl)benzofuran-3-carboxamide]",12 nM,4.7 nM,–,–
"CNC(=O)c1c(-c2ccc(F)cc2)oc2cc(N(C)S(C)(=O)=O)c(-c3ccc4c(n3)-c3cc5c(F)cccc5n3C(C(N)=O)O4)cc12 (stereo not drawn) [Compound 105, 11-fluoro-2-(2-(4-fluorophenyl)-3-(methylcarbamoyl)-6-(N-methylmethylsulfonamido)benzofuran-5-yl)-6H-pyrido[2′,3′:5,6][1,3]oxazino[3,4-a]indole-6-carboxamide]",–,–,1.4 nM,0.9 nM
CNC(=O)c1c(-c2ccc(F)cc2)oc2cc(N(C)S(C)(=O)=O)c(-c3ccc4c(n3)-c3nc5c(F)cccc5n3CO4)cc12 [Compound 139],1.9 nM,1.9 nM,–,–
CCOC(=O)C(C)NCC1Oc2ccc(-c3cc4c(C(=O)NC)c(-c5ccc(F)cc5)oc4cc3N(C)S(C)(=O)=O)nc2-c2cc3c(F)cccc3n21 (stereo not drawn) [Compound 118],19 nM,4 nM,–,–
CNC(=O)c1c(-c2ccc(F)cc2)oc2cc(N(C)S(C)(=O)=O)c(-c3ccc4c(n3)-c3cc5cc(F)ccc5n3CO4)cc12 [Compound 3],2 nM,3.7 nM,–,–
CNC(=O)c1c(-c2ccc(F)cc2)oc2cc(N(C)S(C)(=O)=O)c(-c3ccc4c(n3)-c3cc5c(F)cccc5n3C(COC)O4)cc12 (stereo not drawn) [Compound 96],–,–,4.1 nM,5.1 nM
CNC(=O)c1c(-c2ccc(F)cc2)oc2cc(N(C)S(C)(=O)=O)c(-c3ccc4c(c3)-c3[nH]c5ccccc5c3C(C(C)(C)C)O4)cc12 (stereo not drawn) [Compound 64],71 nM,44 nM,–,–
CNC(=O)c1c(-c2ccc(F)cc2)oc2cc(N(C)S(C)(=O)=O)c(-c3ccc4c(n3)-c3cc5c(F)cccc5n3C(COC)O4)cc12 (stereo not drawn) [Compound 95],3.2 nM,5.3 nM,–,–
CNC(=O)c1c(-c2ccc(F)cc2)oc2cc(N(C)S(C)(=O)=O)c(-c3cc4c(cn3)OCn3c-4cc4ccccc43)cc12 [Compound 11],2.1 nM,1.8 nM,–,–
"CNC(=O)c1c(-c2ccc(F)cc2)oc2cc(N(C)S(C)(=O)=O)c(-c3ccc4c(n3)-c3cc5c(F)cccc5n3C(CO)O4)cc12 (stereo not drawn) [Compound 87, 5-(11-fluoro-6-(hydroxymethyl)-6H-pyrido[2′,3′:5,6][1,3]oxazino[3,4-a]indol-2-yl)-2-(4-fluorophenyl)-N-methyl-6-(N-methylmethylsulfonamido)benzofuran-3-carboxamide]",3 nM,3.3 nM,–,–
"CNC(=O)c1c(-c2ccc(F)cc2)oc2cc(N(C)S(C)(=O)=O)c(-c3ccc4c(c3)-c3nc5ccccc5n3CO4)cc12 [Compound 133, 5-(6H-benzo[e]benzo[4,5]imidazo[1,2-c][1,3]oxazin-2-yl)-2-(4-fluorophenyl)-N-methyl-6-(N-methylmethylsulfonamido)benzofuran-3-carboxamide]",2.6 nM,3.2 nM,–,–
CNC(=O)c1c(-c2ccc(F)cc2)oc2cc(N(CC(C)O)S(C)(=O)=O)c(-c3ccc4c(n3)-c3cc5c(F)cccc5n3CO4)cc12 (stereo not drawn) [Compound 202],2.8 nM,8.8 nM,–,–
"CNC(=O)c1c(-c2ccc(F)cc2)oc2cc(N(C)S(C)(=O)=O)c(-c3ccc4c(c3)-c3c(Cl)c5ccccc5n3C(C3CC3)O4)cc12 (stereo not drawn) [Compound 131, 5-(12-chloro-6-cyclopropyl-6H-benzo[5,6][1,3]oxazino[3,4-a]indol-2-yl)-2-(4-fluorophenyl)-N-methyl-6-(N-methylmethylsulfonamido)benzofuran-3-carboxamide]",79 nM,50 nM,–,–
CNC(=O)c1c(-c2ccc(F)cc2)oc2cc(N(C)S(C)(=O)=O)c(-c3ccc4c(c3)-c3cc5ccccc5n3CC(NCCO)CO4)cc12 (stereo not drawn) [Compound 85],13 nM,7.7 nM,–,–
CNC(=O)c1c(-c2ccc(F)cc2)oc2cc(N(C)S(C)(=O)=O)c(-c3ccc4c(n3)-c3cc5ccc(Cl)cc5n3CO4)cc12 [Compound 15],9.1 nM,9.9 nM,–,–
